molecular target: T1, GCS (Canis lupus familiaris, UniProt A0A8I3MXG6); experiment: Assay 1: GCS Enzymatic Assay (MDCK cell lysate, C6-NBD-Ceramide, LC/MS); assay type: biochemical, canine; settings: Table 2; data without asterisk; read-out: IC50 (nM) generated from Assay 1
T1 sequence (A0A8I3MXG6 1-394): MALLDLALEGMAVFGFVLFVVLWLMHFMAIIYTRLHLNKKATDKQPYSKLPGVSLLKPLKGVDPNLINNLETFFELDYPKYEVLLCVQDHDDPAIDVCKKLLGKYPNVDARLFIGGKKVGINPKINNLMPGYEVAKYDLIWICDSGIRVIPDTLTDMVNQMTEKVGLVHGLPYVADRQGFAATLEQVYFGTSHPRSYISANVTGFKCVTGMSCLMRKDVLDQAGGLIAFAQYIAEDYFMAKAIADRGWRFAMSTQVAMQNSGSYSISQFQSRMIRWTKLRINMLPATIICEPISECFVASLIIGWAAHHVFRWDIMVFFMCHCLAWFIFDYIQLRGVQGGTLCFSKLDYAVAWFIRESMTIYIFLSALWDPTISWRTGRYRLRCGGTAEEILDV
In short: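 LC/MS/MS measurement of glucosylceramide and NBD-ceramide after a 1 h, 37 °C reaction with 100 μM UDP-glucose and 10 μM C6-NBD-ceramide gave IC50s or percent inhibition.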

IC50, < 50 nM:
O=C(N[C@H](CN1CCCC1)[C@H](O)c1ccc(OC2CC2)c(Cl)c1)C(=O)c1ccc(-c2ccc3ncsc3c2)cc1 [Example 297, 2-(4-(benzo[d]thiazol-6-yl)phenyl)-N-((1R,2R)-1-(3-chloro-4-cyclopropoxyphenyl)-1-hydroxy-3-(pyrrolidin-1-yl)propan-2-yl)-2-oxoacetamide]
Cc1cc(C(=O)C(=O)N[C@H](CN2CCCC2)[C@H](O)c2ccc(OC3CC3)c(Cl)c2)ccc1-c1ccc(F)cc1 [Example 298, N-((1R,2R)-1-(3-chloro-4-cyclopropoxyphenyl)-1-hydroxy-3-(pyrrolidin-1-yl)propan-2-yl)-2-(4′-fluoro-2-methyl-[1,1′-biphenyl]-4-yl)-2-oxoacetamide]
Cc1cc(C(=O)C(=O)N[C@H](CN2CCCC2)[C@H](O)c2cc(F)c3c(c2)OCCO3)ccc1-c1ccc(F)cc1 [Example 299, N-((1R,2R)-1-(8-fluoro-2,3-dihydrobenzo[b][1,4]dioxin-6-yl)-1-hydroxy-3-(pyrrolidin-1-yl)propan-2-yl)-2-(4′-fluoro-2-methyl-[1,1′-biphenyl]-4-yl)-2-oxoacetamide]
O=C(N[C@H](CN1CCC1)[C@H](O)c1cc(Cl)c2c(c1)OCCO2)C(=O)c1ccc(-c2ccc(F)cc2)cc1 [Example 300, N-((1R,2R)-3-(azetidin-1-yl)-1-(8-chloro-2,3-dihydrobenzo[b][1,4]dioxin-6-yl)-1-hydroxypropan-2-yl)-2-(4′-fluoro-[1,1′-biphenyl]-4-yl)-2-oxoacetamide]
N#Cc1ccc(-c2ccc(C(=O)C(=O)N[C@H](CN3CCCC3)[C@H](O)c3ccc(OC4CC4)c(Cl)c3)cc2)cc1 [Example 301, N-((1R,2R)-1-(3-chloro-4-cyclopropoxyphenyl)-1-hydroxy-3-(pyrrolidin-1-yl)propan-2-yl)-2-(4′-cyano-[1,1′-biphenyl]-4-yl)-2-oxoacetamide]
O=C(N[C@H](CN1CCCC1)[C@H](O)c1ccc(OC2CC2)c(Cl)c1)C(=O)c1ccc2oc3ccc(Br)cc3c2c1 [Example 302, 2-(8-bromodibenzo[b,d]furan-2-yl)-N-((1R,2R)-1-(3-chloro-4-cyclopropoxyphenyl)-1-hydroxy-3-(pyrrolidin-1-yl)propan-2-yl)-2-oxoacetamide]
[2H]C([2H])(C(=O)N[C@H](CN1CCCC1)[C@H](O)c1ccc(OC2CC2)c(Cl)c1)c1ccc(-c2ccc(F)cc2)cc1 [Example 303, N-[(1R,2R)-2-(3-chloro-4-cyclopropoxyphenyl)-2-hydroxy-1-(pyrrolidinylmethyl)ethyl]-2-[4-(4-fluorophenyl)phenyl]acetamide]
O=C(N[C@H](CN1CCCC1)[C@H](O)c1ccc(OC2CC2)c(Cl)c1)C(=O)c1ccc2nn(Cc3ccc(F)cc3)cc2c1 [Example 304, N-((1R,2R)-1-(3-chloro-4-cyclopropoxyphenyl)-1-hydroxy-3-(pyrrolidin-1-yl)propan-2-yl)-2-(2-(4-fluorobenzyl)-2H-indazol-5-yl)-2-oxoacetamide]
O=C(N[C@H](CN1CCCC1)[C@H](O)c1cc(F)c2c(c1)OCCO2)C(=O)c1ccc2nn(Cc3ccc(F)cc3)cc2c1 [Example 305, N-((1R,2R)-1-(8-fluoro-2,3-dihydrobenzo[b][1,4]dioxin-6-yl)-1-hydroxy-3-(pyrrolidin-1-yl)propan-2-yl)-2-(2-(4-fluorobenzyl)-2H-indazol-5-yl)-2-oxoacetamide]
CC(C)n1ncc2ccc(C(=O)C(=O)N[C@H](CN3CCCC3)[C@H](O)c3ccc(OC4CC4)c(Cl)c3)cc21 [Example 306, N-((1R,2R)-1-(3-chloro-4-cyclopropoxyphenyl)-1-hydroxy-3-(pyrrolidin-1-yl)propan-2-yl)-2-(1-isopropyl-1H-indazol-6-yl)-2-oxoacetamide]
CC(C)n1ncc2ccc(C(=O)C(=O)N[C@H](CN3CCCC3)[C@H](O)c3cc(F)c4c(c3)OCCO4)cc21 [Example 307, N-((1R,2R)-1-(8-fluoro-2,3-dihydrobenzo[b][1,4]dioxin-6-yl)-1-hydroxy-3-(pyrrolidin-1-yl)propan-2-yl)-2-(1-isopropyl-1H-indazol-6-yl)-2-oxoacetamide]
O=C(N[C@H](CN1CCCC1)[C@H](O)c1cc(F)c2c(c1)OCCO2)C(=O)c1cc2ccc(Cl)cc2s1 [Example 308, 2-(6-chlorobenzo[b]thiophen-2-yl)-N-((1R,2R)-1-(8-fluoro-2,3-dihydrobenzo[b][1,4]dioxin-6-yl)-1-hydroxy-3-(pyrrolidin-1-yl)propan-2-yl)-2-oxoacetamide]
O=C(N[C@H](CN1CCCC1)[C@H](O)c1ccc(OC2CCCC2)c(Cl)c1)C(=O)c1ccc(-c2ccc(F)cc2)cc1 [Example 309, N-((1R,2R)-1-(3-chloro-4-(cyclopentyloxy)phenyl)-1-hydroxy-3-(pyrrolidin-1-yl)propan-2-yl)-2-(4′-fluoro-[1,1′-biphenyl]-4-yl)-2-oxoacetamide]
Cc1c2cc(-c3ccc(C(=O)C(=O)N[C@H](CN4CCCC4)[C@H](O)c4ccc(OC5CC5)c(Cl)c4)cc3)ccc2nn1C(C)C [Example 310, N-((1R,2R)-1-(3-chloro-4-cyclopropoxyphenyl)-1-hydroxy-3-(pyrrolidin-1-yl)propan-2-yl)-2-(4-(2-isopropyl-3-methyl-2H-indazol-5-yl)phenyl)-2-oxoacetamide]
CC(C)n1cc2cc(C(=O)C(=O)N[C@H](CN3CCCC3)[C@H](O)c3ccc(OC4CC4)c(Cl)c3)ccc2n1 [Example 311, N-((1R,2R)-1-(3-chloro-4-cyclopropoxyphenyl)-1-hydroxy-3-(pyrrolidin-1-yl)propan-2-yl)-2-(2-isopropyl-2H-indazol-5-yl)-2-oxoacetamide]
CC(C)n1cc2ccc(C(=O)C(=O)N[C@H](CN3CCCC3)[C@H](O)c3cc(F)c4c(c3)OCCO4)cc2n1 [Example 312, N-((1R,2R)-1-(8-fluoro-2,3-dihydrobenzo[b][1,4]dioxin-6-yl)-1-hydroxy-3-(pyrrolidin-1-yl)propan-2-yl)-2-(2-isopropyl-2H-indazol-6-yl)-2-oxoacetamide]
O=C(N[C@H](CN1CCCC1)[C@H](O)c1ccc(OC2CCC2)c(Cl)c1)C(=O)c1ccc(-c2ccc(F)cc2)cc1 [Example 313, N-((1R,2R)-1-(3-chloro-4-cyclobutoxyphenyl)-1-hydroxy-3-(pyrrolidin-1-yl)propan-2-yl)-2-(4′-fluoro-[1,1′-biphenyl]-4-yl)-2-oxoacetamide]
Cc1nn(C(C)C)c2ccc(-c3ccc(C(=O)C(=O)N[C@H](CN4CCCC4)[C@H](O)c4ccc(OC5CC5)c(Cl)c4)cc3)cc12 [Example 314, N-((1R,2R)-1-(3-chloro-4-cyclopropoxyphenyl)-1-hydroxy-3-(pyrrolidin-1-yl)propan-2-yl)-2-(4-(1-isopropyl-3-methyl-1H-indazol-5-yl)phenyl)-2-oxoacetamide]
Cc1cc(F)ccc1-c1ccc(C(=O)C(=O)N[C@H](CN2CCCC2)[C@H](O)c2cc(F)c3c(c2)OCCO3)cc1 [Example 315, 2-(4′-fluoro-2′-methyl-[1,1′-biphenyl]-4-yl)-N-((1R,2R)-1-(8-fluoro-2,3-dihydrobenzo[b][1,4]dioxin-6-yl)-1-hydroxy-3-(pyrrolidin-1-yl)propan-2-yl)-2-oxoacetamide]
CC(C)n1cc2ccc(C(=O)C(=O)N[C@H](CN3CCCC3)[C@H](O)c3ccc(OC4CC4)c(Cl)c3)cc2n1 [Example 316, N-((1R,2R)-1-(3-chloro-4-cyclopropoxyphenyl)-1-hydroxy-3-(pyrrolidin-1-yl)propan-2-yl)-2-(2-isopropyl-2H-indazol-6-yl)-2-oxoacetamide]
Cc1nn(C(C)C)c2ccc(C(=O)C(=O)N[C@H](CN3CCCC3)[C@H](O)c3ccc(OC4CC4)c(Cl)c3)cc12 [Example 317, N-((1R,2R)-1-(3-chloro-4-cyclopropoxyphenyl)-1-hydroxy-3-(pyrrolidin-1-yl)propan-2-yl)-2-(1-isopropyl-3-methyl-1H-indazol-5-yl)-2-oxoacetamide]
Cc1nn(C)c2ccc(-c3ccc(C(=O)C(=O)N[C@H](CN4CCCC4)[C@H](O)c4ccc(OC5CC5)c(Cl)c4)cc3)cc12 [Example 318, N-((1R,2R)-1-(3-chloro-4-cyclopropoxyphenyl)-1-hydroxy-3-(pyrrolidin-1-yl)propan-2-yl)-2-(4-(1,3-dimethyl-1H-indazol-5-yl)phenyl)-2-oxoacetamide]
O=C(N[C@H](CN1CCCC1)[C@H](O)c1ccc2c(c1)OC=CO2)C(=O)c1ccc(-c2ccc(F)cc2)cc1 [Example 319, N-((1R,2R)-1-(benzo[b][1,4]dioxin-6-yl)-1-hydroxy-3-(pyrrolidin-1-yl)propan-2-yl)-2-(4′-fluoro-[1,1′-biphenyl]-4-yl)-2-oxoacetamide]
O=C(N[C@H](CN1CCCC1)[C@H](O)c1ccc(SC2CC2)c(Cl)c1)C(=O)c1ccc(-c2ccc(F)cc2)cc1 [Example 320, N-((1R,2R)-1-(3-chloro-4-(cyclopropylthio)phenyl)-1-hydroxy-3-(pyrrolidin-1-yl)propan-2-yl)-2-(4′-fluoro-[1,1′-biphenyl]-4-yl)-2-oxoacetamide]
CC(C)n1ncc2cc(C(=O)C(=O)N[C@H](CN3CCCC3)[C@H](O)c3ccc(OC4CC4)c(Cl)c3)ccc21 [Example 321, N-((1R,2R)-1-(3-chloro-4-cyclopropoxyphenyl)-1-hydroxy-3-(pyrrolidin-1-yl)propan-2-yl)-2-(1-isopropyl-1H-indazol-5-yl)-2-oxoacetamide]

Source: US10227323B2, “Glucosylceramide synthase inhibitors for the treatment of diseases” (BIOMARIN PHARMACEUTICAL INC., priority 2013, dated 2019)
